Laboratory results as given in patent US20050222041A1, “Ncam binding compounds” (ENKAM Pharmaceuticals A/S, priority 2001, published 2005).
Where “and” joins values, the source holds several entries; their conditions need not be identical. Equal values may be shown once. Read-outs that look alike come from different tables or passages of the source. Ends that are not written are not given here.

Assays:
[1] = tested on: NBP10-induced neurite outgrowth; assay: Inhibition of NBP10d-induced neurite outgrowth by inhibitors of NCAM-dependent signal transduction; type: cell-based, rat
PC12E2 cells = assay: Fura-2 calcium imaging in PC12E2 cells; type: cell-based; conditions: lower concentrations than 50 μM
Procedure: The PC12-E2 cell line was a generous gift from Dr. Klaus Seedorf, Hagedorn Research Institute, Denmark. Cells were grown in DMEM supplemented with 5% v/v FBS and 10% v/v horse serum (HS). For calcium imaging, PC12E2 cells were dislodged mechanically by tapping and seeded at a density of 5-30,000 cells/cm^2 in 4 or 8 well LabTek chambered cover-slides (NUNC) with a growth surface of plastic coated with fibronectin (10 μg/ml) and grown for 1 to 5 days. In some cases, neuronal differentiation was induced by changing the medium to DMEM supplemented with 1% v/v FBS, 1% v/v HS and NGF (50 ng/ml) or FGF-2 (10 ng/ml).
Cells were washed in HANK's solution comprising KCl (5.4 mM), NaCl (137 mM), NaHCO3 (2 mM), MgSO4 (0.8 mM), Na2HPO4 (0.27 mM), Glucose (5.6 mM), CaCl2 (1.25 mM), KH2PO4 (0.44 mM) and loaded with fura-2 acetomethyl ester (Fura-2 AM, 2 μM, Molecular Probes, Eugene, Oreg., USA) dissolved in Dimethyl Sulfoxide (DMSO) for 35 min at 20° C. in the dark. Hereafter, cells were washed four times and placed on the stage of an inverted Axiovert 100 TV microscope (Zeiss, Göttingen, Germany) equipped with an oil immersion UV objective (Zeiss Fluar 40×, 1.3 numerical aperture). […] Rmax was determined in situ using Fura-2 AM loaded cells in the presence of ionomycin (5 μM) and high extracellular calcium (10 mM). Values determined were: Rmax 9.0; Rmin 0.68; F380max/F380min 7.0. […]

hippocampal cells = assay: Cell aggregation in primary hippocampal aggregate cultures; type: cell-based, rat; conditions: 24 h
Procedure: A variety of suitable compounds have been discussed above. To test the function of the NCAM binding molecule, the inventors have established a simple cell culture system (aggregate cell cultures) that permits a quantitative evaluation of the effect of various ligands. Hippocampal cells are provided from rat embryos. The cells are grown in a defined medium and dissociated cells are seeded in microtiter plates. After 24 h, the amount of aggregates are counted. Compounds to be tested are added to the cell suspension immediately before seeding of the cells in micro-wells. When NCAM binding compounds are present during the aggregation of cells, smaller, but more numerous cell aggregates are seen when quantified 24 h after seeding of the cells. The inhibiting effect of the ligands results in a blockage of the formation of large aggregates from many small aggregates as the adhesion properties of NCAM are blocked. Thus, small but more numerous cell aggregates are seen in the presence of active ligands. Such an effect is due to the presence of different compounds of the invention during the aggregation of cells. The system allows for the examination of disaggregation of the treated cells.
Dissociated hippocampal cells prepared from rat embryos gestational day 18 were seeded in microwell plates 50,000 cells in 15 μl of medium per well as previously described (Maar et al., 1997)(Rønn et al., 1999). All animals were handled in accordance with the national guidelines for animal welfare. Cells were grown in Neurobasal medium supplemented with B27, 20 mM HEPES, penicillin (100 U/ml), streptomycin (100 μg/ml) and 0.4% w/v bovine serum albumin. After 24 h in culture, the number of aggregates per well was determined. […] After 24 h, images of neurons were captured and analysed by means of computer-assisted microscopy as described (Rønn et al., 2000).
An important function of NCAM is mediation of cell adhesion. […] The effect of NBP10 on cell aggregation was only quantified at low concentrations of the peptide (FIG. 1CD). […] Under these conditions, the number of aggregates could not be quantified. […]

[2] = tested on: primary hippocampal neurons; assay: Neurite outgrowth in dissociated cultures of primary hippocampal neurons on plastic; type: cell-based, rat; conditions: for concentration of maximal effect on neurite outgrowth: bell shaped dose-response
Procedure: Dissociated hippocampal cells prepared from rat embryos gestational day 18 were seeded in microwell plates 50,000 cells in 15 μl of medium per well as previously described (Maar et al., 1997)(Rønn et al., 1999). All animals were handled in accordance with the national guidelines for animal welfare. Cells were grown in Neurobasal medium supplemented with B27, 20 mM HEPES, penicillin (100 U/ml), streptomycin (100 μg/ml) and 0.4% w/v bovine serum albumin. After 24 h in culture, the number of aggregates per well was determined. For analysis of neurite outgrowth, 5,000 cells/well were seeded in 8 well LabTek Tissue Culture Chamber Slides with a growth surface of Permanox plastic. After 24 h, images of neurons were captured and analysed by means of computer-assisted microscopy as described (Rønn et al., 2000).
The effect of NBP10 in dissociated cultures of primary hippocampal neurons grown on a plastic substratum were examined.

[3] = target: NCAM on primary hippocampal neurons from rat embryos (rat) (UniProt P13596); assay: cell-based or functional assay
[4] = NBP10d 1 μM, inhibitor concentration not given

Molecule: COc1cccc(-c2cc(=O)c3ccccc3o2)c1N [PD98059]
- effect on NBP10-induced neurite outgrowth ([1]; NBP10d 1 μM, inhibitor 10 μM): partially inhibited

Molecule: Cc1ccc(-c2nn(C(C)(C)C)c3ncnc(N)c23)cc1 [PP1]
- effect on NBP10-induced neurite outgrowth [1, 4]: partially inhibited

Molecule: C[S+]([O-])c1ccc(-c2nc(-c3ccncc3)c(-c3ccc(F)cc3)[nH]2)cc1 (stereo not shown) [SB203580]
- effect on NBP10-induced neurite outgrowth ([1]; NBP10d 1 μM, inhibitor 1 μM): partially inhibited

Molecule: CCN(CC)CCCCCCCCOC(=O)c1cc(OC)c(OC)c(OC)c1.Cl [TMB-8, 8-(N,N-diethylamino)octyl-3,4,5-trimethoxybenzoate hydrochloride]
- effect on NBP10-induced neurite outgrowth [1, 4]: complete inhibition

Molecule: AKKMWKKTW (listed as Rattus rattus) [NBP10]
- effect on intracellular calcium (PC12E2 cells): only a fraction of the cells showed detectable increases in intracellular calcium

Molecule: AKKMWKKTW [NBP10m, monomeric NBP10 peptide]
- concentration at which cultures had no distinct cell aggregates (hippocampal cells): 200 µM
- concentration inducing formation of small but distinct aggregates (hippocampal cells): 60 µM
- effect on cell aggregation (hippocampal cells): inhibited cell aggregation
- shape of dose-response relationship for neurite outgrowth [2]: bell shaped
- concentration of maximal effect on neurite outgrowth [2]: ~100 µM
- concentration of maximal effect on neurite outgrowth ([2]; listed as monomer): 1.00 µM
- effect on neurite outgrowth ([2]; dose-response, 24 h, plastic substratum): stimulated neurite outgrowth

Molecule: ω-conotoxin MVIIA
- effect on NBP10-induced neurite outgrowth [1]: partial inhibition

Molecule: AKKMWKKTW (peptide, part only, also: four monomers on lysine dendrimer backbone) [NBP10 peptide dendrimer (four NBP10 monomers coupled to a lysine backbone)]
- cell aggregation of hippocampal cells, concentration with effect [3]: 1 µM and 2 µM
- neurite outgrowth of dissociated hippocampal neurons, concentration of maximal effect [3]: 1 µM
- cell aggregation, potency against the peptide monomer ([3]; scale: times lower concentration than the monomer): 50
